From patent publication US12522582B2 (Gilead Sciences, Inc., priority 2022, dated 2026)

Columns and labels:
[1] = test system: human cryopreserved hepatocytes; test: Stability Assay in Cryopreserved Hepatocytes (human); format: in vitro ADME; conditions: 1 μM, calculated from half-life using the well-stirred model
Description: Test compound was incubated at 1 μM with either rat or human cryopreserved hepatocytes (BioIVT, Westbury, NY) up to 6 hours at 37° C. in a 24-well plate format (1×10^6 cells/mL per well). At specified time points, samples were transferred to a 96-well plate and quenched with 2 volumes of a solution containing 90% acetonitrile 10% methanol 0.1% formic acid and internal standard. Sample plate was centrifuged at 3200 rpm for 15 min and supernatants transferred to a new plate containing half volume of water. The resulting solution was analyzed by LC-MS/MS. Data (analyte to internal standard peak area ratio) was plotted on a semi-log scale and fitted using an exponential fit. Assuming first order kinetics, the half-life (t1/2) and rate of metabolism were determined. Predicted hepatic clearance was calculated from the half-life using the well-stirred model.

[2] = MT-4 CC50 Assay (CellTiter Glo); format: cell-based; conditions: human, MT-4 cells, luminescence, read-out: CC50-MT4
Description: Compounds were tested in 384-well plates: 18 compounds in duplex. Compounds were diluted in 7 points, 3-fold with DMSO by Bravo. Assay plate, which contains 20 uL medium with compounds, was seeded 2000 MT-4 cells in 20 uL/well by Multi-drop to start the assay. The plate was incubated at 37° C. for 5 days. On 6th day, the CellTiter Glo 40 uL was added in each well. Luminescence was read by Victor II.

HSV-2 virus (MS strain) [3] = test: HSV-2 Cellomics Assay (immunofluorescence of HSV protein gD in infected ARPE-19 cells); conditions: Human alphaherpesvirus 2, ARPE-19, 16 h
Description: Compounds were tested for their ability to inhibit HSV-2 replication by monitoring the expression of the HSV protein gD using a high-throughput immunofluorescence-based assay. 10-dose, 3-fold serial dilutions of compounds were prepared at starting concentrations of 0.2 or 2 mM in 100% DMSO. […] The final starting concentration in the assay was either 1 or 10 μM. DMSO (no compound) and pritelivir were included on each microplate as negative and positive controls, respectively.
Prior to confluence, cells were transferred to a centrifuge tube and spun for 5 minutes at 1000 rpm. Cells were resuspended in assay medium (DMEM/F-12 Glutamax, 2% FBS, 1% Penicillin-Streptomycin) and counted. Cell density was adjusted to 150,000 cells/ml and infected with HSV-2 virus (MS strain, ATCC cat #VR-540) at a MOI of 0.06 in a 50 ml conical tube for 1 hour under constant rocking. Cells were then spun for 5 minutes at 1000 rpm and the media replaced with assay medium containing either 2% FBS or 10% human serum (EMD Millipore cat #S1-100 ML). 50 μl of the infection suspension were added into microplate wells that were pre-spotted with compounds (7,500 cells per well). Plates were incubated for 16 hours at 37° C.
After a 30-minute incubation at room temperature, plates were washed 4 times with 100 μl/well of PBS using a Biotek plate washer. […] Plates were washed 4 times again and 50 μl of DPBS were added to all wells prior to sealing the plates with a black adhesive seal. Fluorescence was measured on a Cellomics plate reader.
Data analysis was carried out using the Thermo Scientific HCS Studio software. Briefly, cells were identified using the DAPI nuclear stain and thresholds were set to filter cells out based on shape and size. A second threshold based on green fluorescence intensity (detection of HSV-2 gD) was set to identify HSV-2 infected cells. Data was reported as the average fluorescence intensity of HSV-2 infected cells.

HSV-2 virus (MS strain) [4] = test: HSV qPCR Assay (HSV replication in ARPE-19 cells); conditions: Human alphaherpesvirus 2, ARPE-19, read-out: EC50-HSV2-qPCR
Description: HSV replication in the presence or absence of compounds was measured by qPCR according to the following procedure: DMSO stock compound solutions (1-10 mM) were serially diluted (2.5-fold) in DMSO in clear round bottom 96-well plates. Compounds were then diluted 1:20 in assay medium (DMEM/F12 Glutamax+2% Fetal bovine serum+1% Penicillin Streptomycin) and 10 μL of these dilutions were added to 96-well tissue culture plates for final starting concentrations between 0.5 and 5 μM.
Cells were resuspended in assay medium, counted, and cell density was adjusted to 2.8E+05 cells/ml with assay medium. […] 90 μL of the infection suspension (25,000 cells) were added to assay plates in which compounds were already added. After an overnight incubation at 37° C., cell culture medium was removed, and cell lysis was performed using the prepGEM Universal kit (MicroGEM cat #PUN1000). Specifically, 100 μL of prepGEM master mix (94.75 μL Water, 5 μL buffer, 0.25 μL enzyme stock) were added to each well and plates were incubated at room temperature for 15 minutes, with the 5 last minutes on a plate shaker. The cell lysates were then transferred to a 96-well PCR compatible microplate (Applied Biosystems, Cat #N8010560). Plates were sealed with a heat resistant plastic sealer and heated on a thermal cycler using the following conditions: 75° C. for 10 min, 95° C. for 5 minutes. Finally, plates were cooled down to room temperature with light shaking before proceeding to the qPCR setup.
Plates were sealed with a clear sealer, spun down, and qPCR reactions were performed in an Applied Biosystems Quantstudio 7 Flex instrument using the following conditions: 95° C. for 2 minutes, then 40 cycles alternating between 95° C. for 5 seconds and 60° C. for 30 seconds.
Analysis was performed using dCT method where dCT=CT (test)−CT (DMSO). Fold change was calculated using the 2^^dCT equation. This fold change was then converted to percentage relative to DMSO control (no drug). EC50s were determined by non-linear regression analysis using GraphPad Prism software.

hCAII = hCAII (Homo sapiens (Human), UniProt P00918); test: Carbonic Anhydrase (Esterase) Biochemical Assay, hCAII; conditions: read-out: IC50-hCAII; 4-nitrophenyl acetate hydrolysis, 60 min
Description: 10-dose, 3-fold serial dilutions of compounds were prepared at starting concentrations of 10 mM in 100% DMSO. […] Final starting concentration in the assay was 50 μM. DMSO (no compound) and acetazolamide were included on each microplate as negative and positive controls, respectively.
Following a preincubation at room temperature for 15 minutes, 20 μl of a 4 mM solution of 4NPA substrate (Sigma cat #N8130) in assay buffer were added to start the reaction.

[5] = read-out: EC50-HSV2-10% Human Serum

Compound	Predicted human hepatic clearance [1]	CC50 at 5 days [2]	EC50 (HSV-2 virus (MS strain) [3]; [5])	EC50 (HSV-2 virus (MS strain) [3]; read-out: EC50-HSV2-FBS)	EC50 (HSV-2 virus (MS strain) [4])	IC50 (hCAII)
NS(=O)(=O)c1cc2c(cc1F)CCN2C(=O)[C@@H]1Cc2ccc(-c3ccccn3)cc2C1 [Example 28]	3.67 mL/min/kg	≥ 50000 nM	8440 nM	6 nM	–	–
NS(=O)(=O)c1ccc2c(c1)N(C(=O)[C@@H]1Cc3ccc(-c4ccncc4)cc3C1)CC2 [Example 131, (R)-1-(5-(pyridin-4-yl)-2,3-dihydro-1H-indene-2-carbonyl)indoline-6-sulfonamide]	9.5 mL/min/kg	–	≥ 10000 nM	753 nM	–	–
C[C@@H]1Cc2cc(Cl)c(S(N)(=O)=O)cc2N1C(=O)[C@@H]1Cc2ccc(-c3ccccn3)cc2C1 [Example 60, (R)-5-chloro-2-methyl-1-((R)-5-(pyridin-2-yl)-2,3-dihydro-1H-indene-2-carbonyl)indoline-6-sulfonamide]	2.83 mL/min/kg	≥ 10000 nM	434 nM	13 nM	–	–
NS(=O)(=O)c1ccc2c(c1)N(C(=O)[C@@H]1Cc3ccc(-c4cnccn4)cc3C1)CC2 [Example 87, (R)-1-(5-(pyrazin-2-yl)-2,3-dihydro-1H-indene-2-carbonyl)indoline-6-sulfonamide]	5.17 mL/min/kg	306 nM	3280 nM	13 nM	–	–
NS(=O)(=O)c1cc2c(cc1F)C[C@@H](CF)N2C(=O)[C@@H]1Cc2ccc(-c3ccccn3)cc2C1 [Example 125, (S)-5-fluoro-2-(fluoromethyl)-1-((R)-5-(pyridin-2-yl)-2,3-dihydro-1H-indene-2-carbonyl)indoline-6-sulfonamide]	1.03 mL/min/kg	–	70.2 nM	11.1 nM	0.56 nM	–
NS(=O)(=O)c1ccc2c(c1)N(C(=O)C1Cc3ccc(-c4ncccc4F)cc3C1)CC2 (stereo not drawn) [Example 76]	–	2500 nM	–	107 nM	22 nM	≥ 25000 nM
NS(=O)(=O)c1cc2c(cc1F)CCN2C(=O)C1Cc2ccc(-c3ccccn3)cc2O1 (stereo not drawn) [Example 116, 5-fluoro-1-(6-(pyridin-2-yl)-2,3-dihydrobenzofuran-2-carbonyl)indoline-6-sulfonamide]	0.83 mL/min/kg	–	489 nM	42 nM	–	–
CC1CN(C(=O)C2Cc3ccc(-c4ccccn4)cc3C2)c2cc(S(N)(=O)=O)ccc21 (stereo not drawn) [Example 106, 3-Methyl-1-[5-(2-pyridyl)indane-2-carbonyl]indoline-6-sulfonamide]	–	–	–	81 nM	10.9 nM	–
NS(=O)(=O)c1ccc2c(c1)N(C(=O)[C@@H]1Cc3ccc(-c4cccnc4)cc3C1)CC2 [Example 130, (R)-1-(5-(pyridin-3-yl)-2,3-dihydro-1H-indene-2-carbonyl)indoline-6-sulfonamide]	7.5 mL/min/kg	–	≥ 10000 nM	110 nM	–	–
NS(=O)(=O)c1ccc2c(c1)N(C(=O)C1Cc3ccc(-c4cnccn4)cc3C1)CC2 (stereo not drawn) [Example 74]	–	–	11800 nM	59 nM	8.3 nM	≥ 25000 nM
NS(=O)(=O)c1ccc2c(c1)N(C(=O)C1Cc3ccc(-c4cccc(F)n4)cc3C1)CC2 (stereo not drawn) [Example 75]	–	–	–	32 nM	14.3 nM	≥ 25000 nM
C[C@H]1Cc2ccc(S(N)(=O)=O)cc2N1C(=O)[C@@H]1Cc2ccc(-c3ccccn3)cc2C1 (single isomer, unassigned) [Example 16]	2 mL/min/kg	–	–	775 nM	–	–
C[C@H]1Cc2cc(F)c(S(N)(=O)=O)cc2N1C(=O)[C@H]1Cc2ccc(-c3ccccn3)cc2C1 [Example 140, (S)-5-fluoro-2-methyl-1-((S)-5-(pyridin-2-yl)-2,3-dihydro-1H-indene-2-carbonyl)indoline-6-sulfonamide]	6 mL/min/kg	–	≥ 10000 nM	≥ 10000 nM	–	–
C[C@@H]1Cc2cc(F)c(S(N)(=O)=O)cc2N1C(=O)[C@H]1Cc2cc(-c3ccccn3)ccc2O1 [Example 44]	0.83 mL/min/kg	≥ 10000 nM	326 nM	14 nM	1 nM	–
